Measured values as given in PubChem BioAssay (NCI).
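Interpolation was linear, between the two tested concentrations surrounding the appropriate level; five concentrations were tested over 48 hours in 96-well plates. The concentration for full growth arrest is given as TGI.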

Key:
Test in all cases: inhibition of tumour cell growth, NCI panel, 48 h
SK-MEL-28 melanoma = system: SK-MEL-28 melanoma
HS 578T breast = system: HS 578T breast
UACC-62 melanoma = system: UACC-62 melanoma
NCI/ADR-RES ovarian = system: NCI/ADR-RES ovarian
SR leukemia = system: SR leukemia
MCF7 breast = system: MCF7 breast
MALME-3M melanoma = system: MALME-3M melanoma
DU-145 prostate = system: DU-145 prostate
SK-MEL-2 melanoma = system: SK-MEL-2 melanoma
MDA-MB-435 = system: MDA-MB-435
OVCAR-8 ovarian = system: OVCAR-8 ovarian
NCI-H460 lung = system: NCI-H460 lung
OVCAR-3 ovarian = system: OVCAR-3 ovarian
MDA-MB-231 breast = system: MDA-MB-231 breast
IGROV1 ovarian = system: IGROV1 ovarian
SF-268 CNS = system: SF-268 CNS
SW-620 colon = system: SW-620 colon
SF-539 CNS = system: SF-539 CNS
EKVX NSCLC = system: EKVX NSCLC
K-562 leukemia = system: K-562 leukemia
TK-10 renal = system: TK-10 renal
ACHN renal = system: ACHN renal
HOP-62 NSCLC = system: HOP-62 NSCLC
SN12C renal = system: SN12C renal
SNB-75 CNS = system: SNB-75 CNS
HCT-15 colon = system: HCT-15 colon
OVCAR-4 ovarian = system: OVCAR-4 ovarian
KM12 colon = system: KM12 colon
CAKI-1 renal = system: CAKI-1 renal
MDA-N = system: MDA-N
RXF 393 renal = system: RXF 393 renal
HL-60(TB) leukemia = system: HL-60(TB) leukemia
OVCAR-5 ovarian = system: OVCAR-5 ovarian
COLO 205 colon = system: COLO 205 colon
SK-MEL-5 melanoma = system: SK-MEL-5 melanoma
LOX IMVI melanoma = system: LOX IMVI melanoma
CCRF-CEM leukemia = system: CCRF-CEM leukemia
SF-295 CNS = system: SF-295 CNS
A549 NSCLC = system: A549 NSCLC
NCI-H522 lung = system: NCI-H522 lung
M14 melanoma = system: M14 melanoma
HOP-92 NSCLC = system: HOP-92 NSCLC
HCC-2998 colon = system: HCC-2998 colon
HT29 colon = system: HT29 colon
UACC-257 melanoma = system: UACC-257 melanoma
T-47D breast = system: T-47D breast
RPMI-8226 leukemia = system: RPMI-8226 leukemia
MOLT-4 leukemia = system: MOLT-4 leukemia
SK-OV-3 ovarian = system: SK-OV-3 ovarian
A498 renal = system: A498 renal
NCI-H226 lung = system: NCI-H226 lung
HCT-116 colon = system: HCT-116 colon
786-0 renal = system: 786-0 renal
SNB-19 CNS = system: SNB-19 CNS
NCI-H23 lung = system: NCI-H23 lung
PC-3 prostate = system: PC-3 prostate
U251 CNS = system: U251 CNS
UO-31 renal = system: UO-31 renal

## CC[C@H](C)[C@H]1NC(=O)[C@@H](NC(=O)[C@@H](CC(C)C)N(C)C(=O)C2CCCN2C(=O)[C@H](C)O)[C@@H](C)OC(=O)[C@@H]2Cc3ccccc3CN2C(=O)[C@@H]2CCCN2C(=O)[C@H](CC(C)C)NC(=O)[C@@H](C)C(=O)[C@H](C(C)C)OC(=O)C[C@@H]1O (some centres not stated)
SK-MEL-28 melanoma
  TGI: 23.1 µM
HS 578T breast
  TGI: > 38.4 µM
UACC-62 melanoma
  TGI: 4.47 µM
NCI/ADR-RES ovarian
  TGI: > 100 µM
SR leukemia
  TGI: 1.08 µM
MCF7 breast
  TGI: 12.8 µM
MALME-3M melanoma
  TGI: 5.16 µM
DU-145 prostate
  TGI: 6.31 µM
SK-MEL-2 melanoma
  TGI: 1.55 µM
MDA-MB-435
  TGI: 8.1 µM
OVCAR-8 ovarian
  TGI: > 54.8 µM
NCI-H460 lung
  TGI: 5.09 µM
OVCAR-3 ovarian
  TGI: 6.68 µM
MDA-MB-231 breast
  TGI: 10.3 µM
IGROV1 ovarian
  TGI: > 73.7 µM
SF-268 CNS
  TGI: 6.34 µM
SW-620 colon
  TGI: > 42.6 µM
SF-539 CNS
  TGI: 8.42 µM
EKVX NSCLC
  TGI: > 55 µM
K-562 leukemia
  TGI: > 41.2 µM
TK-10 renal
  TGI: > 70.1 µM
ACHN renal
  TGI: 15.5 µM
HOP-62 NSCLC
  TGI: 12 µM
SN12C renal
  TGI: 5.56 µM
SNB-75 CNS
  TGI: 1.94 µM
HCT-15 colon
  TGI: > 100 µM
OVCAR-4 ovarian
  TGI: > 25 µM
KM12 colon
  TGI: 5.13 µM
CAKI-1 renal
  TGI: > 50 µM
MDA-N
  TGI: 12.5 µM
RXF 393 renal
  TGI: 6.48 µM
HL-60(TB) leukemia
  TGI: 0.433 µM
OVCAR-5 ovarian
  TGI: 12.7 µM
COLO 205 colon
  TGI: 2.61 µM
SK-MEL-5 melanoma
  TGI: 2.86 µM
LOX IMVI melanoma
  TGI: 9.11 µM
CCRF-CEM leukemia
  TGI: 1.66 µM
SF-295 CNS
  TGI: > 28.6 µM
A549 NSCLC
  TGI: 21.3 µM
NCI-H522 lung
  TGI: > 49.3 µM
M14 melanoma
  TGI: 13.3 µM
HOP-92 NSCLC
  TGI: 28.8 µM
HCC-2998 colon
  TGI: 3.26 µM
HT29 colon
  TGI: 10.7 µM
UACC-257 melanoma
  TGI: 6.11 µM
T-47D breast
  TGI: > 100 µM
RPMI-8226 leukemia
  TGI: 10.4 µM
MOLT-4 leukemia
  TGI: 5 µM
SK-OV-3 ovarian
  TGI: > 42 µM
A498 renal
  TGI: 5.96 µM
NCI-H226 lung
  TGI: 6.4 µM
HCT-116 colon
  TGI: 5.08 µM
786-0 renal
  TGI: 11.1 µM

## N#CCCC1(CCC#N)CCCCCCC(CCC#N)(CCC#N)C(=O)C1=O
SK-MEL-28 melanoma
  TGI: > 100 µM
SNB-19 CNS
  TGI: > 100 µM
HS 578T breast
  TGI: > 100 µM
UACC-62 melanoma
  TGI: > 100 µM
NCI/ADR-RES ovarian
  TGI: > 100 µM
SR leukemia
  TGI: > 100 µM
MCF7 breast
  TGI: > 100 µM
MALME-3M melanoma
  TGI: > 100 µM
DU-145 prostate
  TGI: > 100 µM
SK-MEL-2 melanoma
  TGI: > 100 µM
MDA-MB-435
  TGI: > 100 µM
OVCAR-8 ovarian
  TGI: > 100 µM
NCI-H460 lung
  TGI: > 100 µM
OVCAR-3 ovarian
  TGI: > 100 µM
IGROV1 ovarian
  TGI: > 100 µM
SF-268 CNS
  TGI: > 100 µM
SW-620 colon
  TGI: > 100 µM
SF-539 CNS
  TGI: > 100 µM
EKVX NSCLC
  TGI: > 100 µM
K-562 leukemia
  TGI: > 100 µM
TK-10 renal
  TGI: > 100 µM
ACHN renal
  TGI: > 100 µM
NCI-H23 lung
  TGI: > 100 µM
HOP-62 NSCLC
  TGI: > 100 µM
SN12C renal
  TGI: > 100 µM
PC-3 prostate
  TGI: > 100 µM
SNB-75 CNS
  TGI: > 100 µM
HCT-15 colon
  TGI: > 100 µM
OVCAR-4 ovarian
  TGI: > 100 µM
KM12 colon
  TGI: > 100 µM
CAKI-1 renal
  TGI: > 100 µM
MDA-N
  TGI: > 100 µM
RXF 393 renal
  TGI: > 100 µM
OVCAR-5 ovarian
  TGI: > 100 µM
COLO 205 colon
  TGI: > 100 µM
SK-MEL-5 melanoma
  TGI: > 100 µM
LOX IMVI melanoma
  TGI: > 100 µM
SF-295 CNS
  TGI: > 100 µM
A549 NSCLC
  TGI: > 100 µM
NCI-H522 lung
  TGI: > 100 µM
M14 melanoma
  TGI: > 100 µM
HOP-92 NSCLC
  TGI: > 100 µM
HCC-2998 colon
  TGI: > 100 µM
HT29 colon
  TGI: > 100 µM
UACC-257 melanoma
  TGI: > 100 µM
T-47D breast
  TGI: > 100 µM
SK-OV-3 ovarian
  TGI: > 100 µM
U251 CNS
  TGI: > 100 µM
A498 renal
  TGI: > 100 µM
UO-31 renal
  TGI: 20.8 µM
HCT-116 colon
  TGI: > 100 µM
786-0 renal
  TGI: > 100 µM

## Oc1ccc[n+](Cc2ccccc2)c1
SK-MEL-28 melanoma
  TGI: > 100 µM
SNB-19 CNS
  TGI: > 100 µM
HS 578T breast
  TGI: > 100 µM
UACC-62 melanoma
  TGI: > 100 µM
NCI/ADR-RES ovarian
  TGI: > 100 µM
MCF7 breast
  TGI: > 100 µM
MALME-3M melanoma
  TGI: > 100 µM
DU-145 prostate
  TGI: > 100 µM
SK-MEL-2 melanoma
  TGI: > 100 µM
MDA-MB-435
  TGI: > 100 µM
OVCAR-8 ovarian
  TGI: > 100 µM
NCI-H460 lung
  TGI: > 100 µM
OVCAR-3 ovarian
  TGI: > 100 µM
MDA-MB-231 breast
  TGI: > 100 µM
SF-268 CNS
  TGI: > 100 µM
SF-539 CNS
  TGI: > 100 µM
K-562 leukemia
  TGI: > 100 µM
TK-10 renal
  TGI: > 100 µM
ACHN renal
  TGI: > 100 µM
NCI-H23 lung
  TGI: > 100 µM
HOP-62 NSCLC
  TGI: > 100 µM
SN12C renal
  TGI: > 100 µM
PC-3 prostate
  TGI: > 100 µM
SNB-75 CNS
  TGI: > 100 µM
HCT-15 colon
  TGI: > 100 µM
KM12 colon
  TGI: > 100 µM
CAKI-1 renal
  TGI: > 100 µM
MDA-N
  TGI: > 100 µM
RXF 393 renal
  TGI: > 100 µM
HL-60(TB) leukemia
  TGI: > 100 µM
OVCAR-5 ovarian
  TGI: > 100 µM
COLO 205 colon
  TGI: > 100 µM
SK-MEL-5 melanoma
  TGI: > 100 µM
LOX IMVI melanoma
  TGI: > 100 µM
CCRF-CEM leukemia
  TGI: > 100 µM
SF-295 CNS
  TGI: > 100 µM
A549 NSCLC
  TGI: > 100 µM
NCI-H522 lung
  TGI: > 100 µM
M14 melanoma
  TGI: > 100 µM
HCC-2998 colon
  TGI: > 100 µM
HT29 colon
  TGI: > 100 µM
UACC-257 melanoma
  TGI: > 100 µM
T-47D breast
  TGI: > 100 µM
RPMI-8226 leukemia
  TGI: > 100 µM
MOLT-4 leukemia
  TGI: > 100 µM
SK-OV-3 ovarian
  TGI: > 100 µM
U251 CNS
  TGI: > 100 µM
A498 renal
  TGI: > 100 µM
NCI-H226 lung
  TGI: > 100 µM
UO-31 renal
  TGI: > 100 µM
HCT-116 colon
  TGI: > 100 µM
786-0 renal
  TGI: > 100 µM
